Measurements published in patent publication US20230322724A1, “HETEROCYCLIC COMPOUNDS AS CBP/EP300 BROMODOMAIN INHIBITORS” (AURIGENE ONCOLOGY LIMITED, priority 2020, published 2023).

Target: T1, recombinant CREBBP bromodomain (Homo sapiens, UniProt Q92793)
T1 construct: recombinant CREBBP bromodomain obtained from BPS Bioscience, USA; purchased BPS Bioscience, USA
Assay: CBP TR-FRET displacement assay
Format: binding
Conditions: for IC50: dose-response, read-out: IC50 (group A, B, C); for inhibition at 10 µM: compound at 10 μM
Method: The potency of compounds to inhibit CREBBP enzyme was tested in a TR-FRET displacement assay using recombinant CREBBP bromodomain obtained from BPS Bioscience, USA. The assay buffer was 50 mM HEPES (pH 7.5), 50 mM NaCl, 0.008% Brij 35, 0.01% BSA, 1 mM TCEP. 50 nM of CREBBP & 500 nM of Biotinylated ligand was incubated at room temperature for 30 minutes, the reaction was initiated by adding pre-incubated enzyme ligand mixture to the test compounds. After 60 min incubation, the reaction was stopped by the addition of stop mix containing 1 nM of LANCE Europium-anti-6xHis antibody (Perkin Elmer, USA) and 40 nM of Sure Light Allophycocyanin-Streptavidin (Perkin Elmer, USA). Fluorescence emission of the samples at 665 and 615 nm were measured at an excitation of 340 nm and their ratio was plotted against the compound concentrations to generate dose-response curve. The percent inhibition of the test compounds is calculated using the ratio of enzyme activity controls.
elected compounds of the present invention were screened in the above-mentioned assay procedures and IC50 values were determined by fitting the dose-response data to sigmoidal curve fitting equation using Graph pad prism software V7.

T1 sequence (Q92793 1085-1192 limits assumed): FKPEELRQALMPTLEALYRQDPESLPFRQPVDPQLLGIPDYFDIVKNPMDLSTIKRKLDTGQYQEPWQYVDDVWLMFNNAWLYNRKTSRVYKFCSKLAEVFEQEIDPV

Structure (SMILES) | IC50 [nM] | inhibition at 10 µM [%]
COc1cc(N2CCN(C)c3cc(N4CCC(C(=O)NCCO)CC4)c(C#N)cc32)c2cc(C)c(=O)n(C)c2c1 [Example 59, 1-(7-Cyano-1-(7-methoxy-1,3-dimethyl-2-oxo-1,2-dihydroquinolin-5-yl)-4-methyl-1,2,3,4-tetrahydroquinoxalin-6-yl)-N-(2-hydroxyethyl)piperidine-4-carboxamide] | < 50 | –
Cc1cc2c(N3CCN(C)c4cc(-c5cnn(C)c5)ncc43)cc(C3CCOC3)cc2n(C)c1=O (stereo not shown) [Example 142] | < 50 | –
Cc1cc2c(N3CCN(C)c4cc(-c5cnn(C)c5)ncc43)cc(C#CCO)cc2n(C)c1=O [Example 155, 7-(3-Hydroxyprop-1-yn-1-yl)-1,3-dimethyl-5-(1-methyl-7-(1-methyl-1H-pyrazol-4-yl)-2,3-dihydropyrido[3,4-b]pyrazin-4(1H)-yl)quinolin-2(1H)-one] | 51 to 100 | –
COc1cc(N2CC(=O)Nc3cc(-c4cnn(C)c4)c(F)cc32)c2cc(C)c(=O)n(C)c2c1 [Example 55] | 51 to 100 | –
COc1cc(N2CCN(C)c3ccc([S+](C)[O-])cc32)c2cc(C)c(=O)n(C)c2c1 (stereo not shown) [Example 99] | 51 to 100 | –
Cc1cc2c(N3CCN(C)c4cc(-c5cnn(C)c5)ncc43)cc(C3CCOCC3)cc2n(C)c1=O [Example 143] | 51 to 100 | –
COc1cc(N2CCN(C)c3cc(N4CCC(N(C)C)CC4)c(C#N)cc32)c2cc(C)c(=O)n(C)c2c1 [Example 22] | < 50 | –
Cc1cc2c(N3CC(C)N(C)c4cc(-c5cnn(C)c5)ncc43)cc(N3CCOCC3)cc2n(C)c1=O (stereo not shown) [Example 144] | 51 to 100 | –
Cc1cc2c(N3CCN(C)c4cc(-c5cnn(C)c5)[n+]([O-])cc43)cc(N3CCOCC3)cc2n(C)c1=O [Example 160, 4-(1,3-Dimethyl-7-morpholino-2-oxo-1,2-dihydroquinolin-5-yl)-1-methyl-7-(1-methyl-1H-pyrazol-4-yl)-1,2,3,4-tetrahydropyrido[3,4-b]pyrazine 6-oxide] | > 10 | –
COc1cc(N2CC(=O)N(C)c3ccc(S(N)(=O)=O)cc32)c2cc(C)c(=O)n(C)c2c1 [Example 89] | > 10 | –
COc1cc(N2CCN(C)c3cc(-c4ccncc4)c(C#N)cc32)c2cc(C)c(=O)n(C)c2c1 [Example 21] | < 50 | –
CCS(=O)(=O)N1CCN(c2cccc3c2cc(C)c(=O)n3C)c2ccc(-c3cnn(C)c3)cc21 [Example 74, 5-(4-(Ethylsulfonyl)-6-(1-methyl-1H-pyrazol-4-yl)-3,4-dihydroquinoxalin-1(2H)-yl)-1,3-dimethylquinolin-2(1H)-one] | > 10 | –
COc1cc(N2CCN(C)c3cc(N4CCCCC4=O)ncc32)c2cc(C)c(=O)n(C)c2c1 [Example 126] | – | 46
Cc1cc2c(N3CCN(C)c4nc(-c5cnn(C)c5)ncc43)cc(N3CCOCC3)cc2n(C)c1=O [Example 76, 1,3-Dimethyl-5-(8-methyl-2-(1-methyl-1H-pyrazol-4-yl)-7,8-dihydropteridin-5(6H)-yl)-7-morpholinoquinolin-2(1H)-one] | < 50 | –
COc1cc(N2CCN(C)c3cc(C4CC4)c(S(=O)(=O)NC(C)=O)cc32)c2cc(C)c(=O)n(C)c2c1 [Example 109] | < 50 | –
Cc1cc2c(N3CCN(C)c4cc(-c5cnn(C)c5)c(C#N)cc43)cncc2n(C)c1=O [Example 53] | < 50 | –
Cc1cc2c(N3CCCc4cc(-c5cnn(C)c5)ncc43)cc(N3C[C@H]4C[C@@H]3CO4)cc2n(C)c1=O [Example 168] | < 50 | –
Cc1cc2c(N3CCN(C)c4cc(-c5cnn(C)c5)ncc43)cc(OCCN3CCOCC3)cc2n(C)c1=O [Example 128] | 51 to 100 | –
Cc1cc2c(N3CCSc4cc(-c5cnn(C)c5)ncc43)cc(N3CCOCC3)cc2n(C)c1=O [Example 171] | < 50 | –
Cc1cc2c(N3CCN(C)c4cc(-c5cnn(C)c5)ncc43)cc(OC3CCOCC3)cc2n(C)c1=O [Example 158] | < 50 | –
COc1cc(N2CCN(C)c3ccc(S(C)(=N)=O)cc32)c2cc(C)c(=O)n(C)c2c1 (stereo not shown) [Example 101] | – | 27
COc1cc(N2CCCc3ccc(C(F)F)cc32)c2cc(C)c(=O)n(C)c2c1 [Example 175] | > 10 | –
COc1cc(N2CCN(C)c3cc(C(F)(F)F)ncc32)c2cc(C)c(=O)n(C)c2c1 [Example 124] | 51 to 100 | –
CC(=O)N1CCN(CCOc2cc(N3CCN(C)c4cc(-c5cnn(C)c5)c(C#N)cc43)c3cc(C)c(=O)n(C)c3c2)CC1 [Example 61, 4-(7-(2-(4-Acetylpiperazin-1-yl)ethoxy)-1,3-dimethyl-2-oxo-1,2-dihydroquinolin-5-yl)-1-methyl-7-(1-methyl-1H-pyrazol-4-yl)-1,2,3,4-tetrahydroquinoxaline-6-carbonitrile] | < 50 | –
Cc1cc2c(N3CCN(C)c4cc(-c5cnn(C)c5)c(F)cc43)cc(N(C)C)cc2n(C)c1=O [Example 45] | < 50 | –

Other lines, results leading:

IC50 [nM] | inhibition at 10 µM [%] | Structure (SMILES)
51 to 100 | – | CNC(=O)c1ccc(-c2ccc3c(c2)CCCN3c2cc(OC)cc3c2cc(C)c(=O)n3C)cn1 [Example 186]
– | 47 | CNC(=O)c1ccc(-c2cc3c(cc2C(F)F)N(c2cc(OC)cc4c2cc(C)c(=O)n4C)CCC3)cn1 [Example 192, 5-(7-(Difluoromethyl)-7′-methoxy-1′,3′-dimethyl-2′-oxo-1′,2′,3,4-tetrahydro-2H-[1,5′-biquinolin]-6-yl)-N-methylpicolinamide]
51 to 100 | – | Cc1cc2c(N3CCCc4cc(-c5cnn(C)c5)c(C(F)F)cc43)cc(N3CC[C@@H](O)C3)cc2n(C)c1=O [Example 177]
< 50 | – | Cc1cc2c(N3CCCc4cc(-c5cccn(C)c5=O)c(C(F)F)cc43)nc(C3CCOCC3)cc2n(C)c1=O [Example 235, 5-(7-(difluoromethyl)-6-(1-methyl-2-oxo-1,2-dihydropyridin-3-yl)-3,4-dihydroquinolin-1(2H)-yl)-1,3-dimethyl-7-(tetrahydro-2H-pyran-4-yl)-1,6-naphthyridin-2(1H)-one]
< 50 | – | Cc1cc2c(N3CCCc4cc(-c5cnn(C)c5)c(C(F)F)cc43)nc(N3CCC(C)(N)CC3)cc2n(C)c1=O [Example 222]
> 10 | – | COc1cc(N2CCCc3cc(N4CCN(C(C)=O)CC4)ccc32)c2cc(C)c(=O)n(C)c2c1 [Example 185]
> 10 | – | COc1cc(N2CCc3c(c(-c4cnn(C)c4)nn3C)C2)c2cc(C)c(=O)n(C)c2c1 [Example 191]
< 50 | – | Cc1cc2c(N3CCCc4cc(N5CC(C)NC(C)C5)c(C(F)F)cc43)nc(C3CCOCC3)cc2n(C)c1=O (stereo not shown) [Example 236]
< 50 | – | Cc1cc2c(N3CCCc4cc(-c5cnn(C)c5)c(O)cc43)nc(C3CCOCC3)cc2n(C)c1=O [Example 244, 5-(7-Hydroxy-6-(1-methyl-1H-pyrazol-4-yl)-3,4-dihydroquinolin-1(2H)-yl)-1,3-dimethyl-7-(tetrahydro-2H-pyran-4-yl)-1,6-naphthyridin-2(1H)-one]
51 to 100 | – | COc1cc2c(cc1-c1cnn(C)c1)CCCN2c1nc(N2CCC(S(N)(=O)=O)C2)cc2c1cc(C)c(=O)n2C (stereo not shown) [Example 246, 1-(5-(7-Methoxy-6-(1-methyl-1H-pyrazol-4-yl)-3,4-dihydroquinolin-1(2H)-yl)-1,3-dimethyl-2-oxo-1,2-dihydro-1,6-naphthyridin-7-yl)pyrrolidine-3-sulfonamide]
51 to 100 | – | COc1cc2c(cc1-c1cnn(C)c1)CCCN2c1nc(N2CCC(O)C2)cc2c1cc(C)c(=O)n2C (stereo not shown) [Example 232]
< 50 | – | Cc1cc2c(N3CCCc4cc(-c5cnn(C)c5)c(C(F)F)cc43)nc(N3CC(O)C(O)C3)cc2n(C)c1=O (stereo not shown) [Example 213]
